Experimental data taken from EPA's ToxValDB 9.5 (doi:10.2903/j.efsa.2011.2096).
In brackets after ≈: the same amount, converted by molar mass.

What was measured:
[1] = tested on: Aphidius rhopalosiphi; assay: LR50; higher = less toxic; conditions: not reported; mortality
[2] = tested on: Typhlodromus pyri; assay: LR50; higher = less toxic; conditions: not reported; mortality
[3] = tested on: Colinus virginianus; conditions: mortality
[4] = tested on: Plant; conditions: chronic/long-term; seedling emergence
[5] = tested on: Rattus norvegicus
[6] = tested on: Canidae; conditions: chronic; duration: 1 years; oral; Dog Other; body weight
[7] = tested on: Daphnia magna; conditions: chronic/long-term; duration: 21 days; reproduction
[8] = tested on: Oryctolagus sp.; conditions: developmental; development
[9] = tested on: Tagia sp.
[10] = tested on: Apis mellifera; conditions: acute; duration: 48 hours; oral; unspecified; mortality
[11] = tested on: Lepomis macrochirus; conditions: acute; duration: 96 hours; mortality
[12] = tested on: Anas platyrhynchos; conditions: oral, mortality
[13] = tested on: Pimephales promelas; conditions: chronic/long-term; duration: 21 days

Structure (SMILES): O=c1c2cc(F)ccc2nc(-n2cncn2)n1-c1ccc(Cl)cc1Cl [Fluquinconazole]
- LR50 [1]: < 149 g/ha
- LR50 [2]: < 149 g/ha
- LC50 ([3]; acute, oral, diet): 704 mg/kg-day
- LD50 ([3]; acute, oral): > 2000 mg/kg-day
- NOEC ([3]; reproduction developmental): 1.9 mg/kg-day
- NOEC [4]: > 1000 g/ha
- LD50 ([5]; acute, oral, mortality): 112 mg/kg-day
- NOAEL ([5]; chronic, mortality): 0.9 mg/kg-day
- NOAEL ([5]; developmental, development): 2 mg/kg-day
- NOAEL [6]: 0.2 mg/kg-day
- NOEC [7]: 0.648 mg/L
- NOAEL [8]: 2 mg/kg-day
- LC50 ([9]; acute, duration: 14 days, mortality): > 1000 mg/kg
- NOEC ([9]; chronic/long-term, duration: 56 days): 0.5 mg/kg
- LD50 [10]: > 100 µg/piece
- LC50 [11]: 1.34 mg/L (≈ 3.56 µM)
- LD50 ([12]; acute, unspecified): > 2000 mg/kg-day
- LC50 ([12]; short-term, feed): > 210 mg/kg-day
- NOEC [13]: 0.154 mg/L
